# In patent US20230218563A1, “METHODS FOR TREATING OR PREVENTING CHRONIC KIDNEY DISEASE” (Arthrosi Therapeutics, Inc., priority 2020, published 2023):
# Assays:
# [1] = In vitro metabolism in human liver microsomes; format: in vitro ADME; conditions: human liver microsomes 0.5 mg/mL, NADPH, 60 minutes, 37° C.
# Method: After pre-warming the mixture at 37° C. for 5 minutes, the reaction was initiated by the addition of 1 mM of NADPH and incubated for 60 minutes at 37° C. in a shaking water bath. The reaction was terminated by the addition of 0.5 mL ice-cold acetonitrile. Time 0 incubation was also performed by adding acetonitrile before the addition of microsomes to the incubation mixture as a reference sample for each species. Following vortex and centrifugation at 15,000 g for 3 minutes at room temperature, resulting supernatant was concentrated under nitrogen flow at 33° C., until approximately 0.5 mL of sample remained. The extract was then transferred to a 1.5-mL centrifuge vial for centrifugation at 15,000 g for 3 minutes. Finally, aliquots of the supernatant were transferred to HPLC vials for HPLC-MS analyses.
# MS Analysis: Mass spectral analyses were performed on an Agilent single quadruple mass spectrometer equipped with an Agilent 1100 HPLC system. The mass spectrometer was fitted with an electrospray ionization (ESI) source and operated in a negative scan mode between 400 and 500 amu: […]
# [2] = Solubility of test articles in HBSS assay buffer; conditions: all tested concentrations, highest 10 μM
# Method: Before the experiment, the medium was removed and the cells were washed twice with 100 μL of HBSS without Cl^−. Uptake experiments were carried out at 37±1° C. in 50 μL of HBSS without Cl^−, pH 7.4 containing the probe substrate (20 μM uric acid) and the test article (TA) or solvent.
# [3] = tested on: serum uric acid (sUA); assay: Phase 2a cross-over study in adults with gout, serum uric acid; format: in vivo, human; conditions: for patients with sUA levels below 5 mg/dL / patients with sUA levels below 6 mg/dL: gout patients (sUA>7 mg/dL), alone or combined; for mean sUA level reached at maximum: mean baseline 8.9 mg/dL
# [4] = target: T1, human URAT1 uptake transporter (Homo sapiens, UniProt Q96S37); assay: Inhibition of URAT1 mediated uric acid uptake in MDCKII cells stably expressing human URAT1; format: cell-based; conditions: MDCKII cells expressing human URAT1; 20 μM uric acid probe; read-out: IC50, inhibition of URAT1 mediated uric acid accumulation
# T1 construct: expressed in transfected cells
# T1 sequence (Q96S37 1-553): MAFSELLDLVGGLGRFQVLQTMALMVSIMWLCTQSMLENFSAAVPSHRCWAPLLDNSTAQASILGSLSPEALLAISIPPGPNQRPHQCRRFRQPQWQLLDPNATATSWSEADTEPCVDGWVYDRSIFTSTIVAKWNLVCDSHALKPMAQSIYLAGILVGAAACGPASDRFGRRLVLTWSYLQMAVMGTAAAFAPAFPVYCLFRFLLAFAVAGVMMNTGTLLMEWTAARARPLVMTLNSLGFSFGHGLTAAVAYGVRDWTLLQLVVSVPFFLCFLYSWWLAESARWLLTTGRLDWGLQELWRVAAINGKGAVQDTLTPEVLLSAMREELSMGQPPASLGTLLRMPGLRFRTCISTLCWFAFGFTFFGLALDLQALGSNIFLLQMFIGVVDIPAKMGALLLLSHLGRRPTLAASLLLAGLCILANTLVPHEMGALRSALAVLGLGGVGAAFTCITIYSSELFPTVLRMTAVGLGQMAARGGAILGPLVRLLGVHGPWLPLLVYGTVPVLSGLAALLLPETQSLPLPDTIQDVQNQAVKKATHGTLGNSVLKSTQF
# Method: Uptake experiments were performed using MDCKII cells stably expressing the human URAT1 uptake transporter. Cells were cultured at 37±1° C. in an atmosphere of 95:5 air:CO2 and were plated onto standard 96-well tissue culture plates at the cell number described in Table 1.
# Radiolabeled probe substrate transport was determined by measuring an aliquot (35 μL) from each well for liquid scintillation counting.
# [5] = tested on: urine albumin-to-creatinine ratio (UACR); assay: Phase 2a study, UACR in a subject with albuminuria; format: in vivo, human; conditions: one subject with albuminuria, baseline 96 mg/g; sequential 7-day periods: Compound 1 50 mg (Day 7), Compound 1 50 mg/allopurinol 300 mg (Day 14), allopurinol 300 mg (Day 21)
# From the text: Urine samples were collected for assessment of uric acid excretion. Laboratory safety tests, vital signs, and electrocardiograms were collected throughout the study.
# [6] = once daily, Compound 1 50 mg, febuxostat 40 mg, allopurinol 300 mg
# [7] = gout patients, once daily, Compound 1 50 mg, febuxostat 40 mg, allopurinol 300 mg, alone (Day 7/Day 21) or combined
SMILES,"Parent, % MS response (parent left) [1]",solubility in HBSS buffer [2],"patients with sUA levels below 5 mg/dL [3, 6]","patients with sUA levels below 6 mg/dL [3, 6]","mean sUA level reached at maximum [3, 7]","reduction of mean sUA from baseline [3, 7]",IC50 [4],UACR [5],UACR % change from baseline [5],"sUA % change from baseline ([3]; one subject with albuminuria, sequential 7-day periods: Compound 1 50 mg (Day 7), Compound 1 50 mg/allopurinol 300 mg (Day 14), allopurinol 300 mg (Day 21))"
"CCc1oc2ccccc2c1C(=O)c1cc(Br)c(O)c(Br)c1 [benzbromarone, reference compound]",13.1%,soluble,–,–,–,–,–,–,–,–
Cc1nc(-c2ccc(OCC(C)C)c(C#N)c2)sc1C(=O)O [febuxostat],–,–,33%,67%,5.5 mg/dL,38.9%,–,–,–,–
"[2H]c1c(O)c([2H])c2oc(C(C)O)c(C(=O)c3cc(Br)c(O)c(Br)c3)c2c1[2H] (centres unmarked) [Compound 2, (3,5-dibromo-4-hydroxyphenyl)(6-hydroxy-2-(1-hydroxyethyl)benzofuran-3-yl-4,5,7-d3)methanone]",–,soluble,–,–,–,–,913 nM,–,–,–
Oc1ncnc2[nH]ncc12 [allopurinol],–,–,11%,56%,5.8 mg/dL,–,–,55 mg/g,−42.6%,−40%
